In this assay the target is T1, human PD-1 / PD-L1-Ig binding on Jurkat cell line over-expressing human PD-1 (Jurkat-PD-1) (Homo sapiens, UniProt Q15116).
T1 construct: expressed in transfected cells; host or cells: Jurkat
As to the kind of experiment: Jurkat-PD-1 Cell Binding High-Content Screening Assay (CBA). The class given is cell-based. The note with it: PE-labeled PD-L1-Ig 20 nM final. The method in brief: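 PE-PD-L1-Ig 20 nM final; cells in DMEM/10% FCS; cpd pre-incubation 2 h, 37° C; ligand 1 h; PFA fix + Hoechst 33342; high-content imaging read-out.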

Where [1] appears, read: Jurkat-PD-1 cells, read-out: Jurkat HPD1_PDL1 IC50.

Read-outs that look alike come from different tables or passages of the source. Where a SMILES comes first, the peptide text is derived from it. Bridges are numbered along the chain shown (N, C = ends). [ ]: non-standard residue; d: D form. The star is where a group is joined. Phe(4-COOH) = N[C@@H](Cc1ccc(C(=O)O)cc1)C(=O)O; Bip = N[C@@H](Cc1ccc(-c2ccccc2)cc1)C(=O)O; Phe(3-Me) = Cc1cccc(C[C@H](N)C(=O)O)c1; Gla = N[C@@H](CC(C(=O)O)C(=O)O)C(=O)O; Val(3-OH) = CC(C)(O)[C@H](N)C(=O)O; 4Pal = N[C@@H](Cc1ccncc1)C(=O)O; Cha = N[C@@H](CC1CCCCC1)C(=O)O; Cit = NC(=O)NCCC[C@H](N)C(=O)O; Phg = N[C@H](C(=O)O)c1ccccc1; Carboxymethyl = O=C(O)C*; Orn = NCCC[C@H](N)C(=O)O; Pra = C#CC[C@H](N)C(=O)O; Dab = NCC[C@H](N)C(=O)O; Nva = CCC[C@H](N)C(=O)O; Dap = NC[C@H](N)C(=O)O

T1 sequence (Q15116 25-288): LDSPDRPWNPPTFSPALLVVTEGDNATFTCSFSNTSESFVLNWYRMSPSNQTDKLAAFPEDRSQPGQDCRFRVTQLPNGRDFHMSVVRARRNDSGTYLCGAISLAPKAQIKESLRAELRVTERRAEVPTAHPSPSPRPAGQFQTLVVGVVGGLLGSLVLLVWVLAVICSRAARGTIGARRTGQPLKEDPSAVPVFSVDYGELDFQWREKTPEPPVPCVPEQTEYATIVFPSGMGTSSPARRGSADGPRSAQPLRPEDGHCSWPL

Compound `CC(C)C[C@H]1NC(=O)[C@H](CCCN)NC(=O)[C@H](C(C)C)NC(=O)[C@H](Cc2ccc(-c3ccccc3)cc2)NC(=O)[C@H](C(C)C)NC(=O)[C@H](Cc2c[nH]c3ccccc23)NC(=O)[C@H](CC(=O)O)NC(=O)[C@H](Cc2ccc(OCC(=O)O)cc2)NC(=O)[C@H](CN)NC(=O)CSC[C@@H](C(=O)N[C@@H](C)C(=O)N[C@@H](Cc2ccc(OCc3ccccc3)cc2)C(N)=O)NC(=O)[C@H]([C@@H](C)O)NC(=O)[C@H](C(C)C)NC(=O)[C@H](CC2CCCCC2)NC(=O)[C@H](CCN)NC1=O` [Compound 1535] returned a 50% inhibitory concentration (IC50) (Jurkat HPD1_PDL1 IC50, Jurkat-PD-1 cells) of 128 nM.

For `C#CC[C@H](NC(=O)[C@@H]1CSCC(=O)N[C@@H](CCC)C(=O)N[C@@H](Cc2ccc(OCC(=O)O)cc2)C(=O)N[C@@H](CC(=O)O)C(=O)N[C@@H](Cc2cccc(C)c2)C(=O)N[C@@H](Cc2ccc(OCC(=O)O)cc2)C(=O)N[C@@H](Cc2ccc(-c3ccccc3)cc2)C(=O)N[C@@H](Cc2ccc(OCC(=O)O)cc2)C(=O)N[C@@H](CCCN)C(=O)N[C@H](CC(C)C)C(=O)N[C@@H](CCC)C(=O)N[C@@H](CC2CCCCC2)C(=O)N[C@@H](C(C)C)C(=O)N[C@@H](CCC(=O)O)C(=O)N1)C(=O)O` [Compound 2701] ({CH2CO}-[Nva]Y(Carboxymethyl)D[Phe(3-Me)]Y(Carboxymethyl)[Bip]Y(Carboxymethyl)[Orn][dL][Nva][Cha]VEC[Pra]-OH; thioether N-14), under setting [1], the IC50 came out at 163 nM.

With `CC(C)C[C@H]1NC(=O)[C@H](CCCN)NC(=O)[C@H](CCCNC(N)=O)NC(=O)[C@H](Cc2ccc(-c3ccccc3)cc2)NC(=O)[C@H](C(C)C)NC(=O)[C@H](Cc2c[nH]c3ccccc23)NC(=O)[C@H](CC(=O)O)NC(=O)[C@H](CC(C(=O)O)C(=O)O)NC(=O)[C@H](CN)NC(=O)CSC[C@@H](C(=O)N[C@@H](C)C(N)=O)NC(=O)[C@H]([C@@H](C)O)NC(=O)[C@H](C(C)C)NC(=O)[C@H](CC2CCCCC2)NC(=O)[C@H](CCN)NC1=O` [Compound 2134] ({CH2CO}-[Dap][Gla]DWV[Bip][Cit][Orn][dL][Dab][Cha]VTCA-NH2; thioether N-14), the IC50 under setting [1] came out at 365 nM.

In the case of `CC(C)C[C@H]1NC(=O)[C@H](CCCN)NC(=O)[C@H](CCCNC(N)=O)NC(=O)[C@H](Cc2ccc(-c3ccccc3)cc2)NC(=O)[C@H](c2ccccc2)NC(=O)[C@H](Cc2c[nH]c3ccccc23)NC(=O)[C@H](CC(=O)O)NC(=O)[C@H](Cc2ccc(OCC(=O)O)cc2)NC(=O)[C@H](CN)NC(=O)CSC[C@@H](C(=O)N[C@@H](C)C(N)=O)NC(=O)[C@H]([C@@H](C)O)NC(=O)[C@H](C(C)C)NC(=O)[C@H](CC2CCCCC2)NC(=O)[C@H](CCN)NC1=O` [Compound 1359] ({CH2CO}-[Dap]Y(Carboxymethyl)DW[Phg][Bip][Cit][Orn][dL][Dab][Cha]VTCA-NH2; thioether N-14), the IC50 under setting [1] turned out to be 7.9 nM.

For the compound `C#CC[C@H](NC(=O)[C@H](CCN)NC(=O)[C@@H]1CSCC(=O)N[C@@H](Cc2ccncc2)C(=O)N[C@@H](Cc2ccc(C(=O)O)cc2)C(=O)N[C@@H](CC(=O)O)C(=O)N[C@@H](Cc2cccc(C)c2)C(=O)N[C@@H](Cc2ccc(OCC(=O)O)cc2)C(=O)N[C@@H](Cc2ccc(-c3ccccc3)cc2)C(=O)N[C@@H](Cc2ccc(OCC(=O)O)cc2)C(=O)N[C@@H](CCCN)C(=O)N[C@H](CC(C)C)C(=O)N[C@@H](CCN)C(=O)N[C@@H](CC2CCCCC2)C(=O)N[C@@H](C(C)(C)O)C(=O)N[C@@H](CO)C(=O)N1)C(=O)O` [Compound 2318] ({CH2CO}-[4Pal][Phe(4-COOH)]D[Phe(3-Me)]Y(Carboxymethyl)[Bip]Y(Carboxymethyl)[Orn][dL][Dab][Cha][Val(3-OH)]SC[Dab][Pra]-OH; thioether N-14), under setting [1], the 50% inhibitory concentration (IC50) stood at 678 nM.

Broadly, the IC50 is the concentration at which inhibition is half-maximal.

Values taken from patent US20250163104A1, “MACROCYCLIC IMMUNOMODULATORS” (priority 2021, published 2025).
